In US5373040A, “Amorphous solid modification of 2,2',2"-nitrilo[triethyl-tris-(3,3',5,5'-tetra-tert-butyl-1,1'-biphenyl- 2,2'-diyl)phosphite]” (Ciba-Geigy Corporation, priority 1993, dated 1994):

What was measured:
[1] = Apparent bulk density (ASTM D-1895); assay type: physicochemical
Description: The apparent bulk density of the solids is measured according to the method of ASTM D-1895 (79). A higher apparent bulk density allows for a greater mass per unit volume which affords advantages in packaging of the solid product, such as lower costs for the packaging material, less storage space is required, etc.

[2] = Process stabilization of polypropylene at 525° F.: melt flow rate (ASTM D1238); settings: in the presence of a representative phenolic antioxidant; versus prior art compound of U.S. Pat. No. 4,318,845
Description: The test additives are incorporated into the polypropylene by dry blending or, when the additive is a liquid, using a minimum amount of methylene chloride solvent. The solvent is then removed by evaporation under reduced pressure.
After each of the first, third and fifth extrusions, the melt flow rate (in grams/10 minutes) is determined by ASTM method D1238 on the pellets obtained from the extruder.

SMILES: CC(C)(C)c1cc(C(C)(C)C)c2op(OCCN(CCOp3oc4c(C(C)(C)C)cc(C(C)(C)C)cc4c4cc(C(C)(C)C)cc(C(C)(C)C)c4o3)CCOp3oc4c(C(C)(C)C)cc(C(C)(C)C)cc4c4cc(C(C)(C)C)cc(C(C)(C)C)c4o3)oc3c(C(C)(C)C)cc(C(C)(C)C)cc3c2c1 [Example 1, 2,2',2"-nitrilo[triethyl-tris-(3,3',5,5'-tetra-tert-butyl-1,1'-biphenyl-2,2'-diyl)phosphite]]
- Bulk Density [1]: 0.49 g/mL
- stabilizing polypropylene against thermal and oxidative degradation (change in melt flow rate) [2]: equal or more effective
